Calls of active or inactive are those of the source. No cut-off for these calls is given here.
How the values were obtained:
[1] = Plasma protein binding in human assessed as unbound fraction measured after 6 hrs by dialysis method; format: ADME, cell-free
[2] = Metabolic stability in human liver microsome assessed as intrinsic clearance at 1 uM measured upto 60 mins in presence of NADPH by LC-MS/MS analysis; format: ADME; settings: liver microsomes, read-out: CLH
[3] = Metabolic stability in human liver microsome assessed as half life at 1 uM measured upto 60 mins in presence of NADPH by LC-MS/MS analysis; format: ADME; settings: liver microsomes
[4] = Oral bioavailability in male mouse at 2 mg/kg administered as single dose measured after 4 hrs; format: ADME, organism-based; settings: in vivo
Cytochrome P450 2C9 = Cytochrome P450 2C9 (Homo sapiens, UniProt P11712); experiment: Inhibition of CYP2C9 in human liver microsome incubated for 5 min in presence of NADPH by UPLC-MS/MS analysis; format: ADME, microsomes
Sequence of Cytochrome P450 2C9 (P11712 whole entry): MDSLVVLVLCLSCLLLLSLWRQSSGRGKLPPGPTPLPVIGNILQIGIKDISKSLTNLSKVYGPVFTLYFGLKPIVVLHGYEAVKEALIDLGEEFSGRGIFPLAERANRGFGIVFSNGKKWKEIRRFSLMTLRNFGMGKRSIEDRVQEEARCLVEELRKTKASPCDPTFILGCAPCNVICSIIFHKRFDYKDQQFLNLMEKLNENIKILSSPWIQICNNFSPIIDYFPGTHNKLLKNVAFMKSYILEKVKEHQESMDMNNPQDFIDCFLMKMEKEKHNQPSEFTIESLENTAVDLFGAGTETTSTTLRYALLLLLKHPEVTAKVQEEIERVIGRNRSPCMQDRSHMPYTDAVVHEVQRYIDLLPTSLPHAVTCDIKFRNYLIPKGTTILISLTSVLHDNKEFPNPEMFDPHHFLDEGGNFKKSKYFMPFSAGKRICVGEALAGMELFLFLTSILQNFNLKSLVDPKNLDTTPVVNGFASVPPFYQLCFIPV

Rattus norvegicus [5] = experiment: Induction of growth hormone level in Juvenile Sprague-Dawley rat blood at 0.5 mg/kg, po administered as single dose measured after 20 mins by ELISA method (reference value: 29.1+/-8.6 ng/mL); format: functional
CHO = experiment: Agonist activity at human GHSR expressed in CHO cells at maximum concentration incubated for 60 min by FLIPR assay relative to control; format: cell-based; settings: filed as agonist
[6] = Metabolic stability in mouse liver microsome assessed as half life at 1 uM measured upto 60 mins in presence of NADPH by LC-MS/MS analysis; format: ADME; settings: liver microsomes
Rattus norvegicus [7] = experiment: Induction of growth hormone level in Juvenile Sprague-Dawley rat blood at 0.2 mg/kg, po administered as single dose measured after 1 hr by ELISA method (reference value: 45.2+/-12.5 ng/mL); format: functional
Rattus norvegicus [8] = species on record: Rattus norvegicus; experiment: Induction of growth hormone level in 4 week-old Sprague-Dawley rat assessed as increase in body length measured after 10 days; format: functional, organism-based; settings: time 10.0 day
[9] = Toxicity in Sprague-Dawley rat assessed as change in hepatic structure by measuring hepatic lobules at 10 to 100 mg/kg, po administered once daily for 14 days; format: organism-based; settings: in vivo, 336 h, dose 10-100 mg/kg, time 14 day
Rattus norvegicus [10] = experiment: Induction of growth hormone level in adult Sprague-Dawley rat blood at 0.2 mg/kg, po administered as single dose measured after 20 mins by ELISA method (reference value: 4.9+/-1.1 ng/mL); format: functional
[11] = Volume of distribution in male Sprague-Dawley rat at 1 mg/kg, iv administered as single dose measured after 4 hrs; format: ADME, organism-based; settings: in vivo
Rattus norvegicus [12] = experiment: Induction of growth hormone level in Juvenile Sprague-Dawley rat blood at 0.1 mg/kg, po administered as single dose measured immediately by ELISA method (reference value: 28.5+/-8.7 ng/mL); format: functional
Cytochrome P450 2C19 = Cytochrome P450 2C19 (Homo sapiens, UniProt P33261); experiment: Inhibition of CYP2C19 in human liver microsome incubated for 5 min in presence of NADPH by UPLC-MS/MS analysis; format: ADME, microsomes
Sequence of Cytochrome P450 2C19 (P33261 whole entry): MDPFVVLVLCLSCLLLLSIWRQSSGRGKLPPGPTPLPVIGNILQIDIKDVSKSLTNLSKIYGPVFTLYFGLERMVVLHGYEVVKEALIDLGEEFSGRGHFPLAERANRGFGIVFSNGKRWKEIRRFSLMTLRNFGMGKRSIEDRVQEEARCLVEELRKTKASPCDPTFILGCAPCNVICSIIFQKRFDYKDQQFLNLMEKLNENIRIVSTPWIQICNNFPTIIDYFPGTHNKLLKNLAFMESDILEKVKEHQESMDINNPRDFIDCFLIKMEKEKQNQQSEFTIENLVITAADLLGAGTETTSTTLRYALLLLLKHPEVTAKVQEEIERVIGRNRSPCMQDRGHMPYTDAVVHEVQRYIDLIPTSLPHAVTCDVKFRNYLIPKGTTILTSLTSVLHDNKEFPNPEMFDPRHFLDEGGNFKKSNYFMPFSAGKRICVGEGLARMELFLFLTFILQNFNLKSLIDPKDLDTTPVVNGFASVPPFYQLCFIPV

[13] = Volume of distribution in male monkey at 0.5 mg/kg, iv administered as single dose measured after 4 hrs; format: ADME, organism-based, Macaca mulatta; settings: rhesus monkey, in vivo
[14] = Half life in male mouse at 1 mg/kg, iv administered as single dose measured after 4 hrs; format: ADME, organism-based; settings: in vivo
Rattus norvegicus [15] = experiment: Induction of growth hormone level in Juvenile Sprague-Dawley rat blood at 0.1 mg/kg, po administered as single dose measured after 20 mins by ELISA method (reference value: 29.1+/-8.6 ng/mL); format: functional
Rattus norvegicus [16] = experiment: Induction of growth hormone level in adult Sprague-Dawley rat blood by measuring AUC(0 to 40 mins) at 0.5 mg/kg, po administered as single dose by ELISA method (reference value: 7.0+/-1.7 ng/mL); format: functional, organism-based
Rattus norvegicus [17] = experiment: Induction of growth hormone level in adult Sprague-Dawley rat blood at 0.2 mg/kg, po administered as single dose measured after 40 mins by ELISA method (reference value: 14.4+/-6.9 ng/mL); format: functional
[18] = Plasma protein binding in dog assessed as unbound fraction measured after 6 hrs by dialysis method; format: ADME, cell-free, Canis lupus familiaris
Rattus norvegicus [19] = experiment: Induction of growth hormone level in Juvenile Sprague-Dawley rat blood at 0.1 mg/kg, po administered as single dose measured after 2 hrs by ELISA method (reference value: 26.5+/-7.3 ng/mL); format: functional
Rattus norvegicus [20] = experiment: Induction of growth hormone level in 6 week-old female Sprague-Dawley rat assessed as increase in body length at 2.5 mg/kg, po measured after 10 days; format: functional, organism-based; settings: time 10.0 day
Cytochrome P450 1A2 = target: T1, Cytochrome P450 1A2 (Homo sapiens, UniProt P05177); experiment: Inhibition of CYP1A2 in human liver microsome incubated for 5 min in presence of NADPH by UPLC-MS/MS analysis; format: ADME, microsomes
T1 sequence (P05177 whole entry): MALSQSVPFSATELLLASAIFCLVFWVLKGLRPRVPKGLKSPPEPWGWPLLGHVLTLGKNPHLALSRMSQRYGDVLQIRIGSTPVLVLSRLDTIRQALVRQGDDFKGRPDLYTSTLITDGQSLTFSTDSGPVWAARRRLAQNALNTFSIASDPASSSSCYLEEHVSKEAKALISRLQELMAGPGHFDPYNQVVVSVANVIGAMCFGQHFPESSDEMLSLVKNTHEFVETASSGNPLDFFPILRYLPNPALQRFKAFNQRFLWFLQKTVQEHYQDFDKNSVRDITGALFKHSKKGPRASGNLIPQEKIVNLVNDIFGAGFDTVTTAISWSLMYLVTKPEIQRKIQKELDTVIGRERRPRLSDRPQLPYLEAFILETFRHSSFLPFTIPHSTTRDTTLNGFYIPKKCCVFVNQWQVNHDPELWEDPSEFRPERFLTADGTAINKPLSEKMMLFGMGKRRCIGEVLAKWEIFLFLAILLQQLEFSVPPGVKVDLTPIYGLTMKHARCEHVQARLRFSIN

[21] = Tmax in male Sprague-Dawley rat at 2 mg/kg, po administered as single dose measured after 4 hrs; format: ADME, organism-based; settings: in vivo
[22] = Half life in male dog at 0.5 mg/kg, iv administered as single dose measured after 4 hrs; format: ADME, organism-based, Canis lupus familiaris; settings: in vivo
Rattus norvegicus [23] = experiment: Induction of growth hormone level in adult Sprague-Dawley rat blood at 0.1 mg/kg, po administered as single dose measured after 20 mins by ELISA method (reference value: 4.9+/-1.1 ng/mL); format: functional
Cytochrome P450 3A4 = Cytochrome P450 3A4 (Homo sapiens, UniProt P08684); experiment: Inhibition of CYP3A4 in human liver microsome using testosterone as substrate incubated for 5 min in presence of NADPH by UPLC-MS/MS analysis; format: ADME, microsomes
Sequence of Cytochrome P450 3A4 (P08684 whole entry): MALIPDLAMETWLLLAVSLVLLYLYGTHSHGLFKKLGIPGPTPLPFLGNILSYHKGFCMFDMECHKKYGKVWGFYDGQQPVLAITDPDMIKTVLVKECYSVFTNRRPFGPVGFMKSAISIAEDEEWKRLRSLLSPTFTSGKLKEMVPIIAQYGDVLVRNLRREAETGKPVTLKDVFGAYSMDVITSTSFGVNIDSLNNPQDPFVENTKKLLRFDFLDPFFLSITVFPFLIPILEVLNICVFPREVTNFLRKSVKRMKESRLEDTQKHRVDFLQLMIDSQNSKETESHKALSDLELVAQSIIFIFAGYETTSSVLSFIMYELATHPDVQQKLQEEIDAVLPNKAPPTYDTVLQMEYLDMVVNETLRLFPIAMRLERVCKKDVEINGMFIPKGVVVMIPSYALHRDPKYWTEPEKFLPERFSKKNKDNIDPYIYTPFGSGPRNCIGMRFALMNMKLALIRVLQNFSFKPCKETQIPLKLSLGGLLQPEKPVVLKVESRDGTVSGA

Rattus norvegicus [24] = experiment: Induction of growth hormone level in Juvenile Sprague-Dawley rat blood at 0.2 mg/kg, po administered as single dose measured after 4 hrs by ELISA method (reference value: 32.5+/-4.5 ng/mL); format: functional
[25] = Half life in male dog at 2 mg/kg, po administered as single dose measured after 4 hrs; format: ADME, organism-based, Canis lupus familiaris; settings: in vivo
[26] = Oral bioavailability in male dog at 2 mg/kg administered as single dose measured after 4 hrs; format: ADME, organism-based, Canis lupus familiaris; settings: in vivo

Work on `CC(C)(N)C(=O)N[C@H](COCc1ccccc1)C(=O)N1CCC2=NN(C3CC3)C(=O)[C@]2(Cc2ccccc2)C1` yielded a fraction unbound at 6 h [1] of 0.695, a microsomal CLint at 1 µM [2] of 123 µL/min/mg and a half-life at 1 µM [3] of 11.3 min. The bioavailability [4] was 33.9%, the IC50 (Cytochrome P450 2C9) was greater than 30 µM and the Activity (Rattus norvegicus [5]) was 223.2 ng/mL. It also gave an Activity (CHO) of 152%, a half-life at 1 µM [6] of 4.2 min and an Activity (Rattus norvegicus [7]) of 45.9 ng/mL. For the same compound, the Activity (Rattus norvegicus [8]) was “Dose-dependent-effect”, the Activity [9] was “Non-toxic” and the Activity (Rattus norvegicus [10]) was 73.2 ng/mL. For the same compound, the Vd [11] was 2.65 L/kg, the Activity (Rattus norvegicus [12]) was 31.1 ng/mL and the IC50 (Cytochrome P450 2C19) was greater than 30 µM. The Vd [13] was 2.36 L/kg, the half-life [14] was 16.2 min and the Activity (Rattus norvegicus [15]) was 263.6 ng/mL. For the same compound, the AUC (Rattus norvegicus [16]) was 62.8 ng·h/mL, the Activity (Rattus norvegicus [17]) was 26 ng/mL and the fraction unbound at 6 h [18] was 0.563. For the same compound, the Activity (Rattus norvegicus [19]) was 36.7 ng/mL, the Activity (Rattus norvegicus [20]) was “Active” and the IC50 (Cytochrome P450 1A2) was greater than 30 µM. For the same compound, the Tmax [21] was 15 min, the half-life [22] was 56.4 min and the Activity (Rattus norvegicus [23]) was 74.5 ng/mL. The IC50 (Cytochrome P450 3A4) was greater than 30 µM, the Activity (Rattus norvegicus [24]) was 43.5 ng/mL and the half-life [25] was 71.4 min. The bioavailability [26] was 43.6%.

From ChEMBL document CHEMBL6103654, “Design, Biological Characterization, and Discovery of Capromorelin Derivatives as Oral Growth Hormone Secretagogue Receptor Type 1a Agonist for the Treatment of Growth Hormone Deficiency” (J Med Chem, 2025)
